Experimental findings from the NIST ThermoML archive (doi:10.1021/je300170y) are described below.

Numbers after ± are expanded uncertainties.

The conditions of this series: Crystal 1; Chromatography.

In the case of `O=C(O)[C@H](O)[C@@H](O)C(=O)O` [(2R,3R)-2,3-dihydroxybutanedioic acid], the Normal melting temperature is 170.20 ± 1 °C.

As to `O=C(O)[C@H](O)[C@@H](O)C(=O)O` (relative stereo) [(R*,R*)-2,3-dihydroxybutanedioic acid], the Normal melting temperature was 206.00 °C.
